{"source": "the supplement of paper PMC10307832", "assay_in_all_cases": "relative viability (nuclei count vs DMSO), 5 days (fraction); higher = more cells survive", "key": {"NCI-H1792": {"system": "NCI-H1792", "outline": "(§1)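 Lung cancer cell lines in 1536-well plates got either a single drug or a fixed anchor-drug dose together with five library-drug doses (not always all listed) in √10 steps, by pin tool, on the day after seeding. Nuclei were counted after 5 days, and relative viability is the treated-to-vehicle ratio of nuclei counts. Values are medians of duplicate plates.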"}, "NCI-H1734": {"system": "NCI-H1734", "outline": "as §1"}, "LC-2-ad": {"system": "LC-2-ad", "outline": "as §1"}, "NCI-H2087": {"system": "NCI-H2087", "outline": "as §1"}, "NCI-H2342": {"system": "NCI-H2342", "outline": "as §1"}, "NCI-H647": {"system": "NCI-H647", "outline": "as §1"}, "NCI-H2009": {"system": "NCI-H2009", "outline": "as §1"}, "NCI-H596": {"system": "NCI-H596", "outline": "as §1"}, "NCI-H2405": {"system": "NCI-H2405", "outline": "as §1"}, "SK-MES-1": {"system": "SK-MES-1", "outline": "as §1"}, "NCI-H1395": {"system": "NCI-H1395", "outline": "as §1"}, "NCI-H661": {"system": "NCI-H661", "outline": "as §1"}, "NCI-H1355": {"system": "NCI-H1355", "outline": "as §1"}, "HCC-827": {"system": "HCC-827", "outline": "as §1"}, "HCC-366": {"system": "HCC-366", "outline": "as §1"}, "NCI-H1437": {"system": "NCI-H1437", "outline": "as §1"}, "EKVX": {"system": "EKVX", "outline": "as §1"}, "HARA": {"system": "HARA", "outline": "as §1"}, "LOU-NH91": {"system": "LOU-NH91", "outline": "as §1"}, "NCI-H2170": {"system": "NCI-H2170", "outline": "as §1"}, "NCI-H2228": {"system": "NCI-H2228", "outline": "as §1"}, "BEN": {"system": "BEN", "outline": "as §1"}, "SK-LU-1": {"system": "SK-LU-1", "outline": "as §1"}}}
{"smiles": "O=C(O)c1ccc(-c2c[nH]c3ncc(-c4ccccc4)cc23)cc1C1CCCC1", "note": "+ O=C(c1cc(Cc2n[nH]c(=O)c3ccccc23)ccc1F)N1CCN(C(=O)C2CC2)CC1 [Olaparib] (partner 8 µM)", "values": [{"measurement": "relative viability", "setting": "NCI-H1792; first compound 0.04 µM", "value": 0.422}, {"measurement": "relative viability", "setting": "NCI-H1792; first compound 0.1265 µM", "value": 0.655}, {"measurement": "relative viability", "setting": "NCI-H1792; first compound 0.4 µM", "value": 0.446}, {"measurement": "relative viability", "setting": "NCI-H1792; first compound 1.265 µM", "value": 0.405}, {"measurement": "relative viability", "setting": "NCI-H1734; first compound 0.04 µM", "value": 0.562}, {"measurement": "relative viability", "setting": "NCI-H1734; first compound 0.1265 µM", "value": 0.736}, {"measurement": "relative viability", "setting": "NCI-H1734; first compound 0.4 µM", "value": 0.568}, {"measurement": "relative viability", "setting": "NCI-H1734; first compound 1.265 µM", "value": 0.495}, {"measurement": "relative viability", "setting": "LC-2-ad; first compound 0.04 µM", "value": 0.651}, {"measurement": "relative viability", "setting": "LC-2-ad; first compound 0.1265 µM", "value": 0.642}, {"measurement": "relative viability", "setting": "LC-2-ad; first compound 0.4 µM", "value": 0.623}, {"measurement": "relative viability", "setting": "LC-2-ad; first compound 1.265 µM", "value": 0.566}, {"measurement": "relative viability", "setting": "NCI-H2087; first compound 0.04 µM", "value": 0.686}, {"measurement": "relative viability", "setting": "NCI-H2087; first compound 0.1265 µM", "value": 0.597}, {"measurement": "relative viability", "setting": "NCI-H2087; first compound 0.4 µM", "value": 0.524}, {"measurement": "relative viability", "setting": "NCI-H2087; first compound 1.265 µM", "value": 0.342}, {"measurement": "relative viability", "setting": "NCI-H2342; first compound 0.04 µM", "value": 0.456}, {"measurement": "relative viability", "setting": "NCI-H2342; first compound 0.1265 µM", "value": 0.445}, {"measurement": "relative viability", "setting": "NCI-H2342; first compound 0.4 µM", "value": 0.501}, {"measurement": "relative viability", "setting": "NCI-H2342; first compound 1.265 µM", "value": 0.446}, {"measurement": "relative viability", "setting": "NCI-H647; first compound 0.04 µM", "value": 0.5}, {"measurement": "relative viability", "setting": "NCI-H647; first compound 0.1265 µM", "value": 0.619}, {"measurement": "relative viability", "setting": "NCI-H647; first compound 0.4 µM", "value": 0.494}, {"measurement": "relative viability", "setting": "NCI-H647; first compound 1.265 µM", "value": 0.322}, {"measurement": "relative viability", "setting": "NCI-H2009; first compound 0.04 µM", "value": 0.679}, {"measurement": "relative viability", "setting": "NCI-H2009; first compound 0.1265 µM", "value": 0.708}, {"measurement": "relative viability", "setting": "NCI-H2009; first compound 0.4 µM", "value": 0.653}, {"measurement": "relative viability", "setting": "NCI-H2009; first compound 1.265 µM", "value": 0.568}, {"measurement": "relative viability", "setting": "NCI-H596; first compound 0.04 µM", "value": 0.711}, {"measurement": "relative viability", "setting": "NCI-H596; first compound 0.1265 µM", "value": 0.745}, {"measurement": "relative viability", "setting": "NCI-H596; first compound 0.4 µM", "value": 0.749}, {"measurement": "relative viability", "setting": "NCI-H596; first compound 1.265 µM", "value": 0.607}, {"measurement": "relative viability", "setting": "NCI-H2405; first compound 0.04 µM", "value": 0.823}, {"measurement": "relative viability", "setting": "NCI-H2405; first compound 0.1265 µM", "value": 0.951}, {"measurement": "relative viability", "setting": "NCI-H2405; first compound 0.4 µM", "value": 0.778}, {"measurement": "relative viability", "setting": "NCI-H2405; first compound 1.265 µM", "value": 0.584}, {"measurement": "relative viability", "setting": "SK-MES-1; first compound 0.04 µM", "value": 0.716}, {"measurement": "relative viability", "setting": "SK-MES-1; first compound 0.1265 µM", "value": 0.687}, {"measurement": "relative viability", "setting": "SK-MES-1; first compound 0.4 µM", "value": 0.58}, {"measurement": "relative viability", "setting": "SK-MES-1; first compound 1.265 µM", "value": 0.286}, {"measurement": "relative viability", "setting": "NCI-H1395; first compound 0.04 µM", "value": 0.473}, {"measurement": "relative viability", "setting": "NCI-H1395; first compound 0.1265 µM", "value": 0.495}, {"measurement": "relative viability", "setting": "NCI-H1395; first compound 0.4 µM", "value": 0.495}, {"measurement": "relative viability", "setting": "NCI-H1395; first compound 1.265 µM", "value": 0.444}, {"measurement": "relative viability", "setting": "NCI-H661; first compound 0.04 µM", "value": 0.698}, {"measurement": "relative viability", "setting": "NCI-H661; first compound 0.1265 µM", "value": 0.772}, {"measurement": "relative viability", "setting": "NCI-H661; first compound 0.4 µM", "value": 0.744}, {"measurement": "relative viability", "setting": "NCI-H661; first compound 1.265 µM", "value": 0.656}, {"measurement": "relative viability", "setting": "NCI-H1355; first compound 0.04 µM", "value": 0.786}, {"measurement": "relative viability", "setting": "NCI-H1355; first compound 0.1265 µM", "value": 0.837}, {"measurement": "relative viability", "setting": "NCI-H1355; first compound 0.4 µM", "value": 0.666}, {"measurement": "relative viability", "setting": "NCI-H1355; first compound 1.265 µM", "value": 0.323}, {"measurement": "relative viability", "setting": "HCC-827; first compound 0.04 µM", "value": 0.559}, {"measurement": "relative viability", "setting": "HCC-827; first compound 0.1265 µM", "value": 0.714}, {"measurement": "relative viability", "setting": "HCC-827; first compound 0.4 µM", "value": 0.569}, {"measurement": "relative viability", "setting": "HCC-827; first compound 1.265 µM", "value": 0.398}, {"measurement": "relative viability", "setting": "HCC-366; first compound 0.04 µM", "value": 0.362}, {"measurement": "relative viability", "setting": "HCC-366; first compound 0.1265 µM", "value": 0.419}, {"measurement": "relative viability", "setting": "HCC-366; first compound 0.4 µM", "value": 0.422}, {"measurement": "relative viability", "setting": "HCC-366; first compound 1.265 µM", "value": 0.376}, {"measurement": "relative viability", "setting": "NCI-H1437; first compound 0.04 µM", "value": 0.666}, {"measurement": "relative viability", "setting": "NCI-H1437; first compound 0.1265 µM", "value": 0.633}, {"measurement": "relative viability", "setting": "NCI-H1437; first compound 0.4 µM", "value": 0.556}, {"measurement": "relative viability", "setting": "NCI-H1437; first compound 1.265 µM", "value": 0.279}, {"measurement": "relative viability", "setting": "EKVX; first compound 0.04 µM", "value": 0.88}, {"measurement": "relative viability", "setting": "EKVX; first compound 0.1265 µM", "value": 0.931}, {"measurement": "relative viability", "setting": "EKVX; first compound 0.4 µM", "value": 0.866}, {"measurement": "relative viability", "setting": "EKVX; first compound 1.265 µM", "value": 0.657}, {"measurement": "relative viability", "setting": "HARA; first compound 0.04 µM", "value": 0.878}, {"measurement": "relative viability", "setting": "HARA; first compound 0.1265 µM", "value": 0.678}, {"measurement": "relative viability", "setting": "HARA; first compound 0.4 µM", "value": 0.886}, {"measurement": "relative viability", "setting": "HARA; first compound 1.265 µM", "value": 0.329}, {"measurement": "relative viability", "setting": "LOU-NH91; first compound 0.04 µM", "value": 0.893}, {"measurement": "relative viability", "setting": "LOU-NH91; first compound 0.1265 µM", "value": 0.979}, {"measurement": "relative viability", "setting": "LOU-NH91; first compound 0.4 µM", "value": 0.908}, {"measurement": "relative viability", "setting": "LOU-NH91; first compound 1.265 µM", "value": 0.754}, {"measurement": "relative viability", "setting": "NCI-H2170; first compound 0.04 µM", "value": 0.632}, {"measurement": "relative viability", "setting": "NCI-H2170; first compound 0.1265 µM", "value": 0.606}, {"measurement": "relative viability", "setting": "NCI-H2170; first compound 0.4 µM", "value": 0.569}, {"measurement": "relative viability", "setting": "NCI-H2170; first compound 1.265 µM", "value": 0.468}, {"measurement": "relative viability", "setting": "NCI-H2228; first compound 0.04 µM", "value": 0.728}, {"measurement": "relative viability", "setting": "NCI-H2228; first compound 0.1265 µM", "value": 0.645}, {"measurement": "relative viability", "setting": "NCI-H2228; first compound 0.4 µM", "value": 0.626}, {"measurement": "relative viability", "setting": "NCI-H2228; first compound 1.265 µM", "value": 0.309}, {"measurement": "relative viability", "setting": "BEN; first compound 0.04 µM", "value": 1.05}, {"measurement": "relative viability", "setting": "BEN; first compound 0.1265 µM", "value": 1.06}, {"measurement": "relative viability", "setting": "BEN; first compound 0.4 µM", "value": 1.09}, {"measurement": "relative viability", "setting": "BEN; first compound 1.265 µM", "value": 0.944}, {"measurement": "relative viability", "setting": "SK-LU-1; first compound 0.04 µM", "value": 0.457}, {"measurement": "relative viability", "setting": "SK-LU-1; first compound 0.1265 µM", "value": 0.459}, {"measurement": "relative viability", "setting": "SK-LU-1; first compound 0.4 µM", "value": 0.512}, {"measurement": "relative viability", "setting": "SK-LU-1; first compound 1.265 µM", "value": 0.318}]}
